We go through four compounds from ChEMBL document CHEMBL1145987, “Structural determinants of selective thyromimetics” (J Med Chem, 2003).

A word on the Kd: it is the equilibrium constant for the complex coming apart. A low value points to a tighter complex.

The target of test [1] is T1, Thyroid hormone receptor beta (Homo sapiens, UniProt P10828).
T1 sequence (P10828 whole entry): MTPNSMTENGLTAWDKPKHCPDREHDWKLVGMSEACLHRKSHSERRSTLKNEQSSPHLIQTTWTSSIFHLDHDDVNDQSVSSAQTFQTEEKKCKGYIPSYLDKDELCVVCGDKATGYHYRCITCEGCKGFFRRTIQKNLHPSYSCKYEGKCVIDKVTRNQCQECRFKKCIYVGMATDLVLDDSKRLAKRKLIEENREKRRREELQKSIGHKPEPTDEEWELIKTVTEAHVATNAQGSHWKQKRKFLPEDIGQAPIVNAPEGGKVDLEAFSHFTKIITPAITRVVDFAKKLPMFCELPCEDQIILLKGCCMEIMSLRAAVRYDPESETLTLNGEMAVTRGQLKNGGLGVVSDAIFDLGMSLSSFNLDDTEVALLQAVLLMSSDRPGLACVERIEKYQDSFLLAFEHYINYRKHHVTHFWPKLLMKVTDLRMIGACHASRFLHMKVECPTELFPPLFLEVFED
Briefly: Binding affinity of compound was determined against thyroid hormone receptor beta 1.

For test [2], the target named is T2, Thyroid hormone receptor alpha (Homo sapiens, UniProt P10827).
T2 sequence (P10827 whole entry): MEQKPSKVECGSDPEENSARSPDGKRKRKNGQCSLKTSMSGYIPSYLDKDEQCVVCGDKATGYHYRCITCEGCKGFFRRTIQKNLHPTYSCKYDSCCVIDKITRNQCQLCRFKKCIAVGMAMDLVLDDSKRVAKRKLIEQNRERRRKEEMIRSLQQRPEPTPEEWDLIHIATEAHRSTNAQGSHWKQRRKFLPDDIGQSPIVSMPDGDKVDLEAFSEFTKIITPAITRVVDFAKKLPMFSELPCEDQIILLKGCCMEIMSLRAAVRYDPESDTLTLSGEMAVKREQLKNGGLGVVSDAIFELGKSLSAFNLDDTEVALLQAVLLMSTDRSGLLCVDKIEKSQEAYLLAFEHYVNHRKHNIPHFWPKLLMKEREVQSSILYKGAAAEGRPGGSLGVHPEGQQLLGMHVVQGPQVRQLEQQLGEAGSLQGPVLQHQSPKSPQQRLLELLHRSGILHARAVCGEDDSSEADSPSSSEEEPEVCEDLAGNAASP
Briefly: Binding affinity of compound was determined against Thyroid hormone receptor alpha1.

On to `Cc1cc(C[C@H](N)C(=O)O)cc(C)c1Oc1ccc(O)c(C(C)C)c1`, for which the Kd was determined as 6.2 nM in test [1] and 8.5 nM in test [2].

`Cc1cc(C[C@H](N)C(=O)O)cc(C)c1Cc1ccc(O)c(C(C)C)c1`: the Kd in test [1] was found to be 1.26 nM; in test [2], 2.02 nM.

As to `Cc1cc(CCC(=O)O)cc(C)c1Cc1ccc(O)c(C(C)C)c1`, the Kd in test [1] worked out at 0.22 nM; in test [2], 0.69 nM.

With `Cc1cc(OCC(=O)O)cc(C)c1Oc1ccc(O)c(C(C)C)c1`, the values for the dissociation constant (Kd) in test [1] and in test [2] were 0.36 nM and 2.4 nM, respectively.
